Data from US7160981B2, “Peptide antagonists of DP transcription factors” (Prolifix Limited, priority 1996, dated 2007).

Tested on: E2F tumour cell line (E2F4 tumour cells)
Format: cell-based
Details: 24 hours; 33 μM peptide, 33 μM etoposide
Protocol: After 24 hours random regions of the culture dish were examined and the percentage of nonviable cells determined by counting cells with an abnormal morphology.
At 24 hours post treatment cellular morphology was noted and those with a rounded abnormal appearance were scored as dead.
Cells were cultured as above.

COc1cc([C@@H]2c3cc4c(cc3[C@@H](O[C@@H]3O[C@@H]5CO[C@@H](C)O[C@H]5[C@H](O)[C@H]3O)[C@H]3COC(=O)[C@H]23)OCO4)cc(OC)c1O [etoposide]
cell death (cells with rounded abnormal appearance scored as dead): approximately 15%
